Experimental data: ChEMBL document CHEMBL6120975 (2024)
Activity calls are given as the source filed them. No cut-off for these calls is given here. Where a SMILES comes first, the peptide text is derived from it. [ ]: non-standard residue; d: D form. The star is where a group is joined. X3 = NCCOCCOCCOCCOCCOCCOCCOCCOCCCC(=O)*; Stearoyl = CCCCCCCCCCCCCCCCCC(=O)*; Palmitoyl = CCCCCCCCCCCCCCCC(=O)*; X1 = NCCOCCOCCOCCOCCOCCOCCCC(=O)*; X2 = NCCOCCOCCOCCOCCCC(=O)*; Sar = CNCC(=O)O

Experiments:
[1] = Stability in human serum measured upto 24 hrs; type: ADME, cell-free
[2] = molecular target: T1, Neuronal acetylcholine receptor; alpha9/alpha10 (Homo sapiens) (UniProt Q9UGM1+Q9GZZ6); test: Inhibition of human alpha9alpha10 nAChR expressed in acetylcholine-induced Xenopus laevis oocytes assessed as inhibition of acetylcholine-induced current at 30 nM incubated for 5 mins by two electrode voltage-clamp assay; type: cell-based; details: Oocyte
[3] = molecular target: T2, Voltage-dependent N-type calcium channel subunit alpha-1B (Homo sapiens, UniProt Q00975); test: Inhibition of human eGFP tagged Cav2.2 channel transfected in HEK293T cells co-expressed with human GABAB receptor assessed as inhibition of Cav2.2-mediated Ba2+ current at 1 uM by whole-cell patch clamp assay; type: cell-based
Target sequence in this assay (Q00975 whole entry, looked up): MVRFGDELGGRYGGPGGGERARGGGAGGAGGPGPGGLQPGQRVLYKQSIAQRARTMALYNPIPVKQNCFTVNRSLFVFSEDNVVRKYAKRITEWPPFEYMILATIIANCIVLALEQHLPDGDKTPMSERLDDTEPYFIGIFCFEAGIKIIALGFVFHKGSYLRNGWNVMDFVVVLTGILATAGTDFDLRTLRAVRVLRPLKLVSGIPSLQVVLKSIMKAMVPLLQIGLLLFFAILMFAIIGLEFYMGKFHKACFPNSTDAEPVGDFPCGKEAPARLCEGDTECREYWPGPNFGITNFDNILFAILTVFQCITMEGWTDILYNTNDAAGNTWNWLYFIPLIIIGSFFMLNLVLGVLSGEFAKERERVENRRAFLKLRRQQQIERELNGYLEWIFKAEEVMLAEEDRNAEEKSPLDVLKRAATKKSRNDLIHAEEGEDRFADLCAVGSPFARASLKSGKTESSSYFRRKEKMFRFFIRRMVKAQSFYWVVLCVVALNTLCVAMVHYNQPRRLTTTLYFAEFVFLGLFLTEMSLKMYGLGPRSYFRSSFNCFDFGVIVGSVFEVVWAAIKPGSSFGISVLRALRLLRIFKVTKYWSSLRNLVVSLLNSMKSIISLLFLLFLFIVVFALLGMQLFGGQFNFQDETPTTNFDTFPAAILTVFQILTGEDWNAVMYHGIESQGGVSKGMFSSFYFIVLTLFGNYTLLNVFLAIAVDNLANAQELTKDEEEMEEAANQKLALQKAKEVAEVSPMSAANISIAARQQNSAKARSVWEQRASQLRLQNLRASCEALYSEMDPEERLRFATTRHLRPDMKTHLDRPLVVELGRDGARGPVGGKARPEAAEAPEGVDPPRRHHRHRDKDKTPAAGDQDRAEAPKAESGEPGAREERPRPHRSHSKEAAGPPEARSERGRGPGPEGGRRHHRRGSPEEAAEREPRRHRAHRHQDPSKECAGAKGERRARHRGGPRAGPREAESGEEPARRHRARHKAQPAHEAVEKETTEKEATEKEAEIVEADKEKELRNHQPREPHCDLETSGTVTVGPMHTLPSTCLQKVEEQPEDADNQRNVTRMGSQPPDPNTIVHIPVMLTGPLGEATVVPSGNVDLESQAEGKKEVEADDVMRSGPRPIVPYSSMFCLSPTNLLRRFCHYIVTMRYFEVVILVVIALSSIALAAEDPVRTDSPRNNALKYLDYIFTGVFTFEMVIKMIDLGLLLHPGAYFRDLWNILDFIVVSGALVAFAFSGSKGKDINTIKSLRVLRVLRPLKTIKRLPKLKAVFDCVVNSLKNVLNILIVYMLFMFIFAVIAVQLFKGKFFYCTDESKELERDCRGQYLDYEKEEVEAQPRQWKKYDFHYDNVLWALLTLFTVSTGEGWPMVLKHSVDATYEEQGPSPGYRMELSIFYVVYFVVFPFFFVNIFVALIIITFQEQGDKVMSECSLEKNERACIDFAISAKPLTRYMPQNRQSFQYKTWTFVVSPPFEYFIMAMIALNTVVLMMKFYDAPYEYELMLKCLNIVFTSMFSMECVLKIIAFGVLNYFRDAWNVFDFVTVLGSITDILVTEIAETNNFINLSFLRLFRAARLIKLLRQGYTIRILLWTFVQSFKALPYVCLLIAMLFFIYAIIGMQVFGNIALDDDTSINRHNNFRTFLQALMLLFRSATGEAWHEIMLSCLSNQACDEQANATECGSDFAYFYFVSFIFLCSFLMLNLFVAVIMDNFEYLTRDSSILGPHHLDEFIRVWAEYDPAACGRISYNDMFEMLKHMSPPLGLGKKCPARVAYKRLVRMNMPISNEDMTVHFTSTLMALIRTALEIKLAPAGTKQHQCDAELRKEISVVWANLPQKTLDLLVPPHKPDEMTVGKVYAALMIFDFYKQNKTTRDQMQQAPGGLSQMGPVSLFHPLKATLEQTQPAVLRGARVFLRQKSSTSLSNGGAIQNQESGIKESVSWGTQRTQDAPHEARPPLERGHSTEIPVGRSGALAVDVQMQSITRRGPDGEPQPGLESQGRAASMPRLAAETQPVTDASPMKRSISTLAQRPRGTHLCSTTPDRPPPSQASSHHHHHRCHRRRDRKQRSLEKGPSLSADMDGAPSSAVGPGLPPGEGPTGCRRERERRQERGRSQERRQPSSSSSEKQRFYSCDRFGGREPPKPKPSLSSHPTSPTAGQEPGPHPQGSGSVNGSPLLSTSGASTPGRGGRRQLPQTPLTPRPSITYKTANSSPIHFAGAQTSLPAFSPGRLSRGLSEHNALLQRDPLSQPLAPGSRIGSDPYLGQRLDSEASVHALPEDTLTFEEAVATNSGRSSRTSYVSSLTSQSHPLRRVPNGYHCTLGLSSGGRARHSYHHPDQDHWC

[4] = molecular target: T2, Voltage-dependent N-type calcium channel subunit alpha-1B; test: Inhibition of human eGFP tagged Cav2.2 channel transfected in HEK293T cells co-expressed with human GABAB receptor assessed as inhibition of Cav2.2-mediated Ba2+ current at 100 uM by whole-cell patch clamp assay; type: cell-based
Target sequence in this assay (Q00975 whole entry, looked up): as above

Rattus norvegicus [5] = test: Antinociceptive activity in Chronic constriction injury rat model assessed as reduction in pain at 250 microg/kg, IM administration and measured after 2 hrs; type: functional, organism-based; details: dose 250.0 µg/kg
[6] = Stability in human serum assessed as parent compound remaining measured after 24 hrs; type: ADME, cell-free
[7] = molecular target: Neuronal acetylcholine receptor; alpha9/alpha10 (Homo sapiens, UniProt Q9GZZ6+Q9UGM1); test: Inhibition of human alpha9alpha10 nAChR expressed in acetylcholine-induced Xenopus laevis oocytes assessed as inhibition of acetylcholine-induced current incubated for 5 mins by two electrode voltage-clamp assay; type: cell-based, Oocyte
Neuronal acetylcholine receptor; alpha9/alpha10, sequence (Q9UGM1 whole entry): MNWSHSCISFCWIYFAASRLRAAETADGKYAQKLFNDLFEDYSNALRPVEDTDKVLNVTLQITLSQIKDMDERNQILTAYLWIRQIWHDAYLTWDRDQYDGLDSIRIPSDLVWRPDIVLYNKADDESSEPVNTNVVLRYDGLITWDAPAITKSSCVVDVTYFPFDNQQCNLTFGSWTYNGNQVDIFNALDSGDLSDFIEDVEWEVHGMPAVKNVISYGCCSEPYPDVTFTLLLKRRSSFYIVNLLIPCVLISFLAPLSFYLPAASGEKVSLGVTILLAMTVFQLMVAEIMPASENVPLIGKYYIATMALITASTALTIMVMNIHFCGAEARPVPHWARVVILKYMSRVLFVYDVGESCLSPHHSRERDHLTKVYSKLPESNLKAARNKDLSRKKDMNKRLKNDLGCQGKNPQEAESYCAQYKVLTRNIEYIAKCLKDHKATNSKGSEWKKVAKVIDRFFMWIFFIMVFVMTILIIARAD
Neuronal acetylcholine receptor; alpha9/alpha10, sequence (Q9GZZ6 whole entry): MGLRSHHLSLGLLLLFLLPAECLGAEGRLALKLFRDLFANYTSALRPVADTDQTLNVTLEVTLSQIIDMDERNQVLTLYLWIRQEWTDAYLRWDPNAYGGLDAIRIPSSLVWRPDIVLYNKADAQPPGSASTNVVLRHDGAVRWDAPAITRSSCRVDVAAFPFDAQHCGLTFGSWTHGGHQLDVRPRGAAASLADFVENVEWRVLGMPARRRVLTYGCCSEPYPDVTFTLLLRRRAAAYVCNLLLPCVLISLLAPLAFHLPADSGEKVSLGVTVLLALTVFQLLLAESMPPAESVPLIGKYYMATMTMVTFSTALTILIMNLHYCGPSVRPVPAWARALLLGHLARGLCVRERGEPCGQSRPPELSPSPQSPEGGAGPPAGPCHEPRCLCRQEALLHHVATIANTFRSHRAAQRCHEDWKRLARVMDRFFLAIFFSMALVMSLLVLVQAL

[8] = Stability in human plasma assessed as half life; type: ADME, cell-free
[9] = molecular target: Neuronal acetylcholine receptor; alpha4/beta4 (Homo sapiens) (UniProt P30926+P43681); test: Inhibition of human alpha4beta4 nAChR expressed in acetylcholine-induced Xenopus laevis oocytes assessed as inhibition of acetylcholine-induced current at 100 nM incubated for 5 mins by two electrode voltage-clamp assay; type: cell-based; details: Oocyte
[10] = molecular target: Neuronal acetylcholine receptor; alpha3/beta2 (Homo sapiens) (UniProt P17787+P32297); test: Inhibition of human alpha3beta2 nAChR expressed in acetylcholine-induced Xenopus laevis oocytes assessed as inhibition of acetylcholine-induced current at 100 nM incubated for 5 mins by two electrode voltage-clamp assay; type: cell-based; details: Oocyte
[11] = molecular target: Neuronal acetylcholine receptor; alpha4/beta2 (Homo sapiens) (UniProt P17787+P43681); test: Inhibition of human alpha4beta2 nAChR expressed in acetylcholine-induced Xenopus laevis oocytes assessed as inhibition of acetylcholine-induced current at 100 nM incubated for 5 mins by two electrode voltage-clamp assay; type: cell-based; details: Oocyte
[12] = molecular target: Neuronal acetylcholine receptor; alpha3/beta4 (Homo sapiens) (UniProt P30926+P32297); test: Inhibition of human alpha3beta4 nAChR expressed in acetylcholine-induced Xenopus laevis oocytes assessed as inhibition of acetylcholine-induced current at 100 nM incubated for 5 mins by two electrode voltage-clamp assay; type: cell-based; details: Oocyte
Rattus norvegicus [13] = test: Antinociception activity in Oxaliplatin-induced cold allodynia in rat model assessed as analgesic effect at 250 microg/kg, sc measured after 1 hr; type: functional, organism-based; details: dose 250.0 µg/kg
[14] = molecular target: T1, Neuronal acetylcholine receptor; alpha9/alpha10 (Homo sapiens); test: Inhibition of human alpha9alpha10 nAChR expressed in acetylcholine-induced Xenopus laevis oocytes assessed as inhibition of acetylcholine-induced current at 100 nM incubated for 5 mins by two electrode voltage-clamp assay; type: cell-based; details: Oocyte
[15] = molecular target: T2, Voltage-dependent N-type calcium channel subunit alpha-1B; test: Inhibition of human eGFP tagged Cav2.2 channel transfected in HEK293T cells co-expressed with human GABAB receptor assessed as inhibition of Cav2.2-mediated Ba2+ current by whole-cell patch clamp assay; type: cell-based
Target sequence in this assay (Q00975 whole entry): as the sequence (Q00975 whole entry, looked up) above

Rattus norvegicus [16] = test: Antinociception activity in Oxaliplatin-induced cold allodynia in rat model assessed as analgesic effect at 250 microg/kg, iv measured after 1 to 12 hr; type: functional, organism-based; details: dose 250.0 µg/kg, time 1-12 hrs
Rattus norvegicus [17] = test: Antinociception activity in Oxaliplatin-induced cold allodynia in rat model assessed as analgesic effect at 250 microg/kg, sc measured after 4 to 8 hr; type: functional, organism-based; details: dose 250.0 µg/kg, time 4-8 hrs
[18] = molecular target: T2, Voltage-dependent N-type calcium channel subunit alpha-1B; test: Inhibition of human eGFP tagged Cav2.2 channel transfected in HEK293T cells co-expressed with human GABAB receptor assessed as inhibition of Cav2.2-mediated Ba2+ current at 100 uM by whole-cell patch clamp assay relative to control; type: cell-based
Target sequence in this assay (Q00975 whole entry, looked up): as above

[19] = molecular target: Neuronal acetylcholine receptor subunit alpha-7 (Homo sapiens, UniProt P36544); test: Inhibition of human alpha7 nAChR expressed in acetylcholine-induced Xenopus laevis oocytes assessed as inhibition of acetylcholine-induced current incubated for 5 mins by two electrode voltage-clamp assay; type: cell-based, Oocyte
Neuronal acetylcholine receptor subunit alpha-7, sequence (P36544 whole entry): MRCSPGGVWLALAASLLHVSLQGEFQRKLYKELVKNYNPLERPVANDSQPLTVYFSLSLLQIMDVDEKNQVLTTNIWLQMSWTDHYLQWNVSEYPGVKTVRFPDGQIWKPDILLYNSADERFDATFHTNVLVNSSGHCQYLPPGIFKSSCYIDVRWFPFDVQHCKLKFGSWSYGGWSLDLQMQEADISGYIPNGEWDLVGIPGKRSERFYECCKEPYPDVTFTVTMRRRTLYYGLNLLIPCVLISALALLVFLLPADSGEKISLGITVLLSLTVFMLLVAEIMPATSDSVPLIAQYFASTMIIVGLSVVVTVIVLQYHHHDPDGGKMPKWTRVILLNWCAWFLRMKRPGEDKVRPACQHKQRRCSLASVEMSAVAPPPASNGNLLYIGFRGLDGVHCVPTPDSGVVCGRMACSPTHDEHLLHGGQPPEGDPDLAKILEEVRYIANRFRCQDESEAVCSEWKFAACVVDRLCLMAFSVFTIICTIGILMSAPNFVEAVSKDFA

Row | Compound | inhibition [2] | inhibition [3] | inhibition [4] | Activity (Rattus norvegicus [5]) | remaining at 24 h [6] [%] | IC50 [7] [µM] | further results
1 | CCCCCCCCCCCCCCCCCC(=O)NCC(=O)N[C@@H](CCCNC(=N)N)C(=O)N[C@@H](Cc1ccc(O)cc1)C(=O)N[C@@H](CCCNC(=N)N)C(=O)N[C@@H](CO)C(=O)N1CCC[C@H]1C(=O)N[C@@H](Cc1ccc(O)cc1)C(=O)N[C@@H](CC(=O)O)C(=O)N[C@@H](CCCNC(=N)N)C(=O)N[C@@H](CCCNC(=N)N)C(=O)N[C@@H](CCCNC(=N)N)C(=O)N[C@@H](CCCNC(=N)N)C(=O)N[C@@H](Cc1ccc(O)cc1)C(=O)N[C@@H](CCCNC(=N)N)C(=O)N[C@@H](CCCNC(=N)N)C(=O)N[C@H](C(=O)N[C@H](C(=O)N[C@@H](CC(=O)O)C(N)=O)[C@@H](C)O)[C@@H](C)CC (Stearoyl-GRYRSPYDRRRRYRRITD-NH2) | inactive | Active; Compound Showed Weak Inhibitory Activity | Active; Compound Showed Minimal Activity | – | – | – | Stability [1]: Stable
2 | CC[C@H](C)[C@H](NC(=O)[C@H](CCCNC(=N)N)NC(=O)[C@H](CCCNC(=N)N)NC(=O)[C@H](Cc1ccc(O)cc1)NC(=O)[C@H](CCCNC(=N)N)NC(=O)[C@H](CCCNC(=N)N)NC(=O)[C@H](CCCNC(=N)N)NC(=O)[C@H](CCCNC(=N)N)NC(=O)[C@H](CC(=O)O)NC(=O)[C@H](Cc1ccc(O)cc1)NC(=O)[C@@H]1CCCN1C(=O)[C@H](CO)NC(=O)[C@H](CCCNC(=N)N)NC(=O)[C@H](Cc1ccc(O)cc1)NC(=O)[C@H](CCCNC(=N)N)NC(=O)CNC(=O)CCCOCCOCCOCCOCCOCCOCCOCCOCCN)C(=O)N[C@H](C(=O)N[C@@H](CC(=O)O)C(N)=O)[C@@H](C)O (X3-GRYRSPYDRRRRYRRITD-NH2) | Active | Active; Compound Showed Weak Inhibitory Activity | Active; Compound Showed Minimal Activity | inactive | > 80 | 0.0118 | –
3 | H-GRYRSPYDRRRRYRRITD-NH2 | – | – | – | – | – | – | half-life [8]: < 30 min
4 | CCCCCCCCCCCCCCCC(=O)NCC(=O)N[C@@H](CCCNC(=N)N)C(=O)N[C@@H](Cc1ccc(O)cc1)C(=O)N[C@@H](CCCNC(=N)N)C(=O)N[C@@H](CO)C(=O)N1CCC[C@H]1C(=O)N[C@@H](Cc1ccc(O)cc1)C(=O)N[C@@H](CC(=O)O)C(=O)N[C@@H](CCCNC(=N)N)C(=O)N[C@@H](CCCNC(=N)N)C(=O)N[C@@H](CCCNC(=N)N)C(=O)N[C@@H](CCCNC(=N)N)C(=O)N[C@@H](Cc1ccc(O)cc1)C(=O)N[C@@H](CCCNC(=N)N)C(=O)N[C@@H](CCCNC(=N)N)C(=O)N[C@H](C(=O)N[C@H](C(=O)N[C@@H](CC(=O)O)C(N)=O)[C@@H](C)O)[C@@H](C)CC (Palmitoyl-GRYRSPYDRRRRYRRITD-NH2) | inactive | Active; Compound Showed Weak Inhibitory Activity | Active; Compound Showed Minimal Activity | – | – | – | Stability [1]: Stable
5 | CC[C@H](C)[C@H](NC(=O)[C@H](CCCNC(=N)N)NC(=O)[C@H](CCCNC(=N)N)NC(=O)[C@H](Cc1ccc(O)cc1)NC(=O)[C@H](CCCNC(=N)N)NC(=O)[C@H](CCCNC(=N)N)NC(=O)[C@H](CCCNC(=N)N)NC(=O)[C@H](CCCNC(=N)N)NC(=O)[C@H](CC(=O)O)NC(=O)[C@H](Cc1ccc(O)cc1)NC(=O)[C@@H]1CCCN1C(=O)[C@H](CO)NC(=O)[C@H](CCCNC(=N)N)NC(=O)[C@H](Cc1ccc(O)cc1)NC(=O)[C@H](CCCNC(=N)N)NC(=O)CNC(=O)CCCOCCOCCOCCOCCN)C(=O)N[C@H](C(=O)N[C@@H](CC(=O)O)C(N)=O)[C@@H](C)O (X2-GRYRSPYDRRRRYRRITD-NH2) | Active | Active; Compound Showed Weak Inhibitory Activity | Active; Compound Showed Minimal Activity | inactive | > 80 | 0.0078 | –
6 | CC[C@H](C)[C@H](NC(=O)[C@H](CCCNC(=N)N)NC(=O)[C@H](CCCNC(=N)N)NC(=O)[C@H](Cc1ccc(O)cc1)NC(=O)[C@H](CCCNC(=N)N)NC(=O)[C@H](CCCNC(=N)N)NC(=O)[C@H](CCCNC(=N)N)NC(=O)[C@H](CCCNC(=N)N)NC(=O)[C@H](CC(=O)O)NC(=O)[C@H](Cc1ccc(O)cc1)NC(=O)[C@@H]1CCCN1C(=O)[C@H](CO)NC(=O)[C@H](CCCNC(=N)N)NC(=O)[C@H](Cc1ccc(O)cc1)NC(=O)[C@H](CCCNC(=N)N)NC(=O)CNC)C(=O)N[C@H](C(=O)N[C@@H](CC(=O)O)C(N)=O)[C@@H](C)O (H-[Sar]RYRSPYDRRRRYRRITD-NH2) | Active | – | – | – | – | 0.0142 | inhibition [9]: inactive; inhibition [10]: inactive; inhibition [11]: Active; inhibition [12]: inactive; Activity (Rattus norvegicus [13]): inactive; inhibition [14]: inactive; IC50 [15]: 7.8 µM; Activity (Rattus norvegicus [16]): Active; Activity (Rattus norvegicus [17]): Active; inhibition [18]: 100%; IC50 [19]: 0.121 µM
7 | CC[C@H](C)[C@H](NC(=O)[C@H](CCCNC(=N)N)NC(=O)[C@H](CCCNC(=N)N)NC(=O)[C@H](Cc1ccc(O)cc1)NC(=O)[C@H](CCCNC(=N)N)NC(=O)[C@H](CCCNC(=N)N)NC(=O)[C@H](CCCNC(=N)N)NC(=O)[C@H](CCCNC(=N)N)NC(=O)[C@H](CC(=O)O)NC(=O)[C@H](Cc1ccc(O)cc1)NC(=O)[C@@H]1CCCN1C(=O)[C@H](CO)NC(=O)[C@H](CCCNC(=N)N)NC(=O)[C@H](Cc1ccc(O)cc1)NC(=O)[C@H](CCCNC(=N)N)NC(=O)CNC(=O)CCCOCCOCCOCCOCCOCCOCCN)C(=O)N[C@H](C(=O)N[C@@H](CC(=O)O)C(N)=O)[C@@H](C)O (X1-GRYRSPYDRRRRYRRITD-NH2) | Active | Active; Compound Showed Weak Inhibitory Activity | Active; Compound Showed Minimal Activity | inactive | > 80 | 0.0159 | –
